From paper PMC10004634 (PLOS ONE, 2023)
Read-outs that look alike come from different tables or passages of the source.

Tests used:
Test in all cases: biochemical
Parameters in all cases: KINOMEscan scanMAX competition binding, DNA-tagged kinases, qPCR read-out, percent control at 300 nM
MRCKA = target: T1, MRCKA (Homo sapiens, UniProt Q5VT25)
T1 construct: gene CDC42BPA

TAOK3 = TAOK3 (Homo sapiens, UniProt Q9H2K8)
FYN = FYN (Homo sapiens, UniProt P06241)
AKT2 = AKT2 (Homo sapiens, UniProt P31751)
CHEK1 = CHEK1 (Homo sapiens, UniProt O14757)
CDC2L1 = target: T2, CDC2L1 (Homo sapiens, UniProt P21127)
T2 construct: gene CDK11B

RET = RET (Homo sapiens, UniProt P07949)
PRKCI = PRKCI (Homo sapiens, UniProt P41743)
PCTK2 = target: T3, PCTK2 (Homo sapiens, UniProt Q00537)
T3 construct: gene CDK17

SRPK2 = SRPK2 (Homo sapiens, UniProt P78362)
GSK3B = GSK3B (Homo sapiens, UniProt P49841)
EGFR(S752-I759del) = EGFR(S752-I759del) (Homo sapiens, UniProt P00533, DEL752-759)
TSSK1B = TSSK1B (Homo sapiens, UniProt Q9BXA7)
GRK7 = GRK7 (Homo sapiens, UniProt Q8WTQ7)
EPHB1 = EPHB1 (Homo sapiens, UniProt P54762)
ERK5 = target: T4, ERK5 (Homo sapiens, UniProt Q13164)
T4 construct: gene MAPK7

[1] = target: T5, RSK4(Kin.Dom.1-N-terminal) (Homo sapiens, UniProt Q9UK32)
T5 construct: gene RPS6KA6; Kin.Dom.1-N-terminal

MAST1 = MAST1 (Homo sapiens, UniProt Q9Y2H9)
CDK8 = CDK8 (Homo sapiens, UniProt P49336)
EPHA8 = EPHA8 (Homo sapiens, UniProt P29322)
PIK3CA(H1047L) = PIK3CA(H1047L) (Homo sapiens, UniProt P42336, H1047L)
[2] = target: T6, RSK1(Kin.Dom.2-C-terminal) (Homo sapiens, UniProt Q15418)
T6 construct: gene RPS6KA1; Kin.Dom.2-C-terminal

DYRK2 = DYRK2 (Homo sapiens, UniProt Q92630)
[3] = read-out: Percent control / Acalabrutinib
[4] = read-out: Percent control / Ibrutinib
[5] = read-out: Percent control / Tirabrutinib
[6] = read-out: Percent control / Zanubrutinib

PRKCI, sequence (P41743 whole entry): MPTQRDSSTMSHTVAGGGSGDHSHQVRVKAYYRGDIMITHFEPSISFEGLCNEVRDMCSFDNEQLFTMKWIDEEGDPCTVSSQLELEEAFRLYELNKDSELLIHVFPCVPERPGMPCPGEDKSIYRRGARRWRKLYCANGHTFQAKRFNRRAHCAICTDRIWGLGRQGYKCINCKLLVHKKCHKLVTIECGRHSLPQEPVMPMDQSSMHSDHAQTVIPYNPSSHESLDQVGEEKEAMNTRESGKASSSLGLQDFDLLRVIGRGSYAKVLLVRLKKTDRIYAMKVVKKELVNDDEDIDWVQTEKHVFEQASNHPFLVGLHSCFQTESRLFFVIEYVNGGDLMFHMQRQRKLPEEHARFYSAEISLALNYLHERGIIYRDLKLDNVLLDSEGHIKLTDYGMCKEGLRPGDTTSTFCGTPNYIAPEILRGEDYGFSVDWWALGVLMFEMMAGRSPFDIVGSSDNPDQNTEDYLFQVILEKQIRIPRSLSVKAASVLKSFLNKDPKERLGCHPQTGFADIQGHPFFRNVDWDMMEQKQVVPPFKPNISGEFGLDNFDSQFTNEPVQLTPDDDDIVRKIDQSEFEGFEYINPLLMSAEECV
PIK3CA(H1047L), sequence (P42336 whole entry H1047L): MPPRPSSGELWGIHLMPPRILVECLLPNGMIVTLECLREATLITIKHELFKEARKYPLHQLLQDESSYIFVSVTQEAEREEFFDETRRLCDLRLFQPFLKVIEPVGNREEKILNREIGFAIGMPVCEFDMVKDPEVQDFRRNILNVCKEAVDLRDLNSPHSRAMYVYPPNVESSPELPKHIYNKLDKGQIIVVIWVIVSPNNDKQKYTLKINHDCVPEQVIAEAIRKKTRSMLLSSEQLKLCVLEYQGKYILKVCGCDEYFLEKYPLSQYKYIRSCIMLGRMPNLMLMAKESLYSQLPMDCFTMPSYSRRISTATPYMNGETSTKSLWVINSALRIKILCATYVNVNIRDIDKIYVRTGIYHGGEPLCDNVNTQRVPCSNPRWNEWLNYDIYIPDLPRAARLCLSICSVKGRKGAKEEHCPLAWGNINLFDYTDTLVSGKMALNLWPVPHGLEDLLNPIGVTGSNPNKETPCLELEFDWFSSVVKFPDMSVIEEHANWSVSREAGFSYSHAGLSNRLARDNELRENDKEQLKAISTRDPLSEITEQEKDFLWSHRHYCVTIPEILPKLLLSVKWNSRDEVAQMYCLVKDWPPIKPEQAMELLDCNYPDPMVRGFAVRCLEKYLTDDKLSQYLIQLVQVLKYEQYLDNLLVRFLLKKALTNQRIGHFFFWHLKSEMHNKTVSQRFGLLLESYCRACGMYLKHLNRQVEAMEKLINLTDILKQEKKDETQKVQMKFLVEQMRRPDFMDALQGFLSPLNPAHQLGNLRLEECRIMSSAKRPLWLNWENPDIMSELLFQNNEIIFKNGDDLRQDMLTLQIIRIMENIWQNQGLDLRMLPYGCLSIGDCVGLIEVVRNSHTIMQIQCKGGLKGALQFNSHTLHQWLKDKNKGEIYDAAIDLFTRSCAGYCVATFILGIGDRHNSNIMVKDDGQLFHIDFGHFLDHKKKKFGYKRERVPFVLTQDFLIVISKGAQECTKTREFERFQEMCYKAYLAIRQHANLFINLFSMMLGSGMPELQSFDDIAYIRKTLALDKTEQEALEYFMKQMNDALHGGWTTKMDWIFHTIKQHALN
TAOK3, sequence (Q9H2K8 whole entry): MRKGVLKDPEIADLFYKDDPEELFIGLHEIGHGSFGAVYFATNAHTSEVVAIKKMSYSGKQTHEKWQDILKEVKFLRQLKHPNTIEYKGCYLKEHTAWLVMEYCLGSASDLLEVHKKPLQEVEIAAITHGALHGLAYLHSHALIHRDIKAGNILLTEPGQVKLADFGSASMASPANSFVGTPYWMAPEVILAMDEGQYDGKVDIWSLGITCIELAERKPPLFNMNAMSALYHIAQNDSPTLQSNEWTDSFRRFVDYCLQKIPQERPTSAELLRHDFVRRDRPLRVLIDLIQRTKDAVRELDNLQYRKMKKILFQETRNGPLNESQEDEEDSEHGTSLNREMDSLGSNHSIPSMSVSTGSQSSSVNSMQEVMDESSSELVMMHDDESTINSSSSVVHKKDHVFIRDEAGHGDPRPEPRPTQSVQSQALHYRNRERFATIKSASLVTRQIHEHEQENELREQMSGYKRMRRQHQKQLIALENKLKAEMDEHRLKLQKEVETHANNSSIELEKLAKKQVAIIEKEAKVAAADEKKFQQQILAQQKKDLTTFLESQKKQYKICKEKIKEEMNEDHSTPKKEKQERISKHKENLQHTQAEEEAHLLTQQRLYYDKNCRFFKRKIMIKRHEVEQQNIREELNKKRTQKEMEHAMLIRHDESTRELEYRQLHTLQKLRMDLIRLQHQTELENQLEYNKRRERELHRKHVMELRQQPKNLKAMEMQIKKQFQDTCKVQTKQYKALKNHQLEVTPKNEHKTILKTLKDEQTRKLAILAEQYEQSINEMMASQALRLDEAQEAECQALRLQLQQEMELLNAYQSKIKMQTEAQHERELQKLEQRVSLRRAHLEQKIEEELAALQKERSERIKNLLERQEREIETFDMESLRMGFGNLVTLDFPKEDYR
CDK8, sequence (P49336 whole entry): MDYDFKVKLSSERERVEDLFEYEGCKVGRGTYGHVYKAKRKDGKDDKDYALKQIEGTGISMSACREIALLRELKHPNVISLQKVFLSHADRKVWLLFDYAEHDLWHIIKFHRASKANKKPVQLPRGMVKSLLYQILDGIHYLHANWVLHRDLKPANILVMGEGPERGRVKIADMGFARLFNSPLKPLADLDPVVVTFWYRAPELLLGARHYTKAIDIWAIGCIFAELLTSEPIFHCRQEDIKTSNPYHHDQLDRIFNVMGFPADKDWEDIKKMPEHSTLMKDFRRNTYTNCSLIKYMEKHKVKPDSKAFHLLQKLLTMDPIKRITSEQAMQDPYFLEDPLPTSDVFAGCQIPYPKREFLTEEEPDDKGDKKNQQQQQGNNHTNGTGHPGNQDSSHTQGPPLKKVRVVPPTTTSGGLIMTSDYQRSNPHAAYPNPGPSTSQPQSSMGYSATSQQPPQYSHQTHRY
FYN, sequence (P06241 whole entry): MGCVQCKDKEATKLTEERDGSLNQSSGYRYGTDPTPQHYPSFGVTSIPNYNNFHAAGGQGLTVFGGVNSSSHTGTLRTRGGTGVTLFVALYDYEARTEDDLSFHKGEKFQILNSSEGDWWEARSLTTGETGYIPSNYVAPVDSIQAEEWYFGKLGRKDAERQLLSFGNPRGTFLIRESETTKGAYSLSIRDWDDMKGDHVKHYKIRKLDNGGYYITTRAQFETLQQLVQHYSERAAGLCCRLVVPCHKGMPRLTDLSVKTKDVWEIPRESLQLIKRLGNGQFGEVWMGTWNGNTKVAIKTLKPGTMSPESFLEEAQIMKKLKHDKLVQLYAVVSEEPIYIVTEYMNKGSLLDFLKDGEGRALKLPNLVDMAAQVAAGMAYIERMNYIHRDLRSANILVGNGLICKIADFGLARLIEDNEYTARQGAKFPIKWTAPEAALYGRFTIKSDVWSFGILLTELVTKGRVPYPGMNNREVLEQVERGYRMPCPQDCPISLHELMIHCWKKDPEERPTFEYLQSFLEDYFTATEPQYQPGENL
EPHA8, sequence (P29322 whole entry): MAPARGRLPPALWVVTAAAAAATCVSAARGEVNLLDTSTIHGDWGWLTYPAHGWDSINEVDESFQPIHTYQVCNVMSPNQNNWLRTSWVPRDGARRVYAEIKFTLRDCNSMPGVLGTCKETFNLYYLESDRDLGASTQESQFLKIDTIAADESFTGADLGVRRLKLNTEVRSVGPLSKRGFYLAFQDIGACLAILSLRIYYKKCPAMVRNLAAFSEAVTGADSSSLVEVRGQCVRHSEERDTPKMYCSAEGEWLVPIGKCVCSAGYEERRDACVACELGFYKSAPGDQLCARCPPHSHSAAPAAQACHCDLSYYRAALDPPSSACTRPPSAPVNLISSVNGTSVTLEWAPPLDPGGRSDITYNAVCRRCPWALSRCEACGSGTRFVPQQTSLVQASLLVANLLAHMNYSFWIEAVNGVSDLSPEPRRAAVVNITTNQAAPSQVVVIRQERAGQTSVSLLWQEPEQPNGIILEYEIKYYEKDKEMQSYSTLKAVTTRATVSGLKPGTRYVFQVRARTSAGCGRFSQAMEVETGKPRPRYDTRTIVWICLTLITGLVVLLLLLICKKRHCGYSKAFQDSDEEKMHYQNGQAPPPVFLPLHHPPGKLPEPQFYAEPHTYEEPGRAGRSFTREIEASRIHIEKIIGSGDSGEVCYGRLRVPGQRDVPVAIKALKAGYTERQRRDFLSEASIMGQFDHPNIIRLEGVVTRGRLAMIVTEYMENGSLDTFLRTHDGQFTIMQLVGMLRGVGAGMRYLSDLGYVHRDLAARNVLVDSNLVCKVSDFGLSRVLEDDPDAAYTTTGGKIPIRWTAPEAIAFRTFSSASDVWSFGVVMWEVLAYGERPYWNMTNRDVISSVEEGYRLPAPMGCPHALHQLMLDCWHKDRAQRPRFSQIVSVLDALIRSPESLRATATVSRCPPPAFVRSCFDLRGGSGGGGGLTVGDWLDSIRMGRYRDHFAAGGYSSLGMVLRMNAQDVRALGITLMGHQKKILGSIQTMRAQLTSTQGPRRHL
TSSK1B, sequence (Q9BXA7 whole entry): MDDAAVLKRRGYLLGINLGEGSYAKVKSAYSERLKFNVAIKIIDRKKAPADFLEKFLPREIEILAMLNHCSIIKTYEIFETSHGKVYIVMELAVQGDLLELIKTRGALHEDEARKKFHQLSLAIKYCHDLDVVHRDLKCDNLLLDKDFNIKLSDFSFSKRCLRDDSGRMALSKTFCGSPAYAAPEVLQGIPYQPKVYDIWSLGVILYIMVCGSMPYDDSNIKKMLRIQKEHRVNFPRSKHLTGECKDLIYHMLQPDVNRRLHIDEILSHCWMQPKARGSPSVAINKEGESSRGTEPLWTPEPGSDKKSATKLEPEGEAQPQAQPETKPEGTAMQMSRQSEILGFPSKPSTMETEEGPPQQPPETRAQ

CC#CC(=O)N1CCC[C@H]1c1nc(-c2ccc(C(=O)Nc3ccccn3)cc2)c2c(N)nccn12 [Acalabrutinib] was tested, and the remaining binding at 0.3 µM (MRCKA; [3]) was 96%, the remaining binding at 0.3 µM (TAOK3; [3]) was 99% and the remaining binding at 0.3 µM (FYN; [3]) was 95%. The remaining binding at 0.3 µM (AKT2; [3]) was 87%, the remaining binding at 0.3 µM (CHEK1; [3]) was 88% and the remaining binding at 0.3 µM (CDC2L1; [3]) was 93%. The remaining binding at 0.3 µM (RET; [3]) was 87%, the remaining binding at 0.3 µM (PRKCI; [3]) was 87% and the remaining binding at 0.3 µM (PCTK2; [3]) was 97%. It also gave a remaining binding at 0.3 µM (SRPK2; [3]) of 90%, a remaining binding at 0.3 µM (GSK3B; [3]) of 97% and a remaining binding at 0.3 µM (EGFR(S752-I759del); [3]) of 97%. The remaining binding at 0.3 µM (TSSK1B; [3]) was 93%, the remaining binding at 0.3 µM (GRK7; [3]) was 74% and the remaining binding at 0.3 µM (EPHB1; [3]) was 93%. The remaining binding at 0.3 µM (ERK5; [3]) was 97%, the remaining binding at 0.3 µM [1, 3] was 82% and the remaining binding at 0.3 µM (MAST1; [3]) was 87%. It also gave a remaining binding at 0.3 µM (CDK8; [3]) of 93%, a remaining binding at 0.3 µM (EPHA8; [3]) of 96% and a remaining binding at 0.3 µM (PIK3CA(H1047L); [3]) of 90%.
With C=CC(=O)N1CCC[C@@H](n2nc(-c3ccc(Oc4ccccc4)cc3)c3c(N)ncnc32)C1 [Ibrutinib] the remaining binding at 0.3 µM (TAOK3; [4]) was 98%, the remaining binding at 0.3 µM (FYN; [4]) was 19% and the remaining binding at 0.3 µM (RET; [4]) was 40%.
For CC#CC(=O)N1CC[C@@H](n2c(=O)n(-c3ccc(Oc4ccccc4)cc3)c3c(N)ncnc32)C1 [Tirabrutinib], the remaining binding at 0.3 µM (EGFR(S752-I759del); [5]) was 96%, the remaining binding at 0.3 µM [2, 5] was 88% and the remaining binding at 0.3 µM (DYRK2; [5]) was 99%.
For C=CC(=O)N1CCC([C@@H]2CCNc3c(C(N)=O)c(-c4ccc(Oc5ccccc5)cc4)nn32)CC1 [Zanubrutinib], the remaining binding at 0.3 µM (MRCKA; [6]) was 100%, the remaining binding at 0.3 µM (AKT2; [6]) was 82% and the remaining binding at 0.3 µM (CHEK1; [6]) was 92%. For the same molecule, the remaining binding at 0.3 µM (CDC2L1; [6]) was 90%, the remaining binding at 0.3 µM (PRKCI; [6]) was 68% and the remaining binding at 0.3 µM (PCTK2; [6]) was 82%. For the same molecule, the remaining binding at 0.3 µM (SRPK2; [6]) was 96%, the remaining binding at 0.3 µM (GSK3B; [6]) was 74% and the remaining binding at 0.3 µM (TSSK1B; [6]) was 100%. The remaining binding at 0.3 µM (GRK7; [6]) was 100%, the remaining binding at 0.3 µM [2, 6] was 92% and the remaining binding at 0.3 µM (EPHB1; [6]) was 96%. The remaining binding at 0.3 µM (ERK5; [6]) was 84%, the remaining binding at 0.3 µM [1, 6] was 100% and the remaining binding at 0.3 µM (MAST1; [6]) was 100%. It also gave a remaining binding at 0.3 µM (DYRK2; [6]) of 81%, a remaining binding at 0.3 µM (CDK8; [6]) of 100% and a remaining binding at 0.3 µM (EPHA8; [6]) of 90%. The remaining binding at 0.3 µM (PIK3CA(H1047L); [6]) was 100%.
